Laboratory results reported in a melting point compilation (Tetko et al.; mined from patent text by program, amines drawn as free bases though some values may be those of a salt).

melting point | Compound
193 to 199 °C | COc1ccc(S(=O)(=O)Nc2ccc(C)cc2)c2c3ccccc3n(C=O)c12
126 °C | CC(C)(C)c1cc(C=O)cc(Br)c1O
130 to 131 °C | COC(=O)C[C@H](NC(c1ccccc1)(c1ccccc1)c1ccccc1)C(=O)C(=[N+]=[N-])C(=O)N(C)OC
104 to 106 °C | CCOc1cc2c(Cl)ncnc2cc1OC(C)C
> 260 °C | Cn1c(C(N)=O)c(-c2ccc(NC(=O)Nc3cc(C(F)(F)F)ccc3F)cc2)c2ccccc21
206 to 208 °C | O=C1CCC(N2Cc3c(OCc4ccc(CN5CCOCC5)cc4)cccc3C2=O)C(=O)N1 (centres undefined)
85 to 90 °C | O=C(O)COCN(c1ccc(CN2CCN(Cc3ccccc3)C(=O)C2=O)cc1)c1ncccn1
210 to 212 °C | O=C(NCc1ccc(Cl)cc1)c1cn2c(CO)cc3cc(CN4CCOCC4)cc(c1=O)c32
167 to 168 °C | O=C(O)c1ccccc1Sc1ccc(F)cc1[N+](=O)[O-]
210 to 211 °C | N=C(Nc1cccc2ccccc12)Nc1cccc2ccccc12
105 to 106 °C | CCOC(=O)c1cc2c(nc1C)CCCC2
86 to 87 °C | Nc1ccc(Cn2ncnn2)cc1
206 to 208 °C | O=C(c1ccncc1)[N+]1([O-])CCN(C2c3ccc(Cl)cc3OCc3cccnc32)CC1 (centres undefined)
215 to 216 °C | CC(C)Cn1c(CONS(C)(=O)=O)nc2c(N)nc3ccccc3c21
109 °C | Cc1ncc(Cn2c(CC3CCN(Cc4ccccc4)CC3)nc3ccccc32)o1
304 to 306 °C | O=C(O)c1ccc2c(c1)S(=O)(=O)c1ccccc1NC2
118 to 123 °C | CC[C@@H](NC(=O)CCCCl)C(N)=O
209 to 210 °C | COC(=O)c1ccc2nc3c(C)sc(C)c3c(=O)n2c1
126 to 127 °C | O=C(O)c1nc(C2CC2)nc(Cl)c1Cl
187 to 189 °C | N#CC(=NO)C(=O)NC(=O)NCCCCCC(N)=O
136 to 137 °C | CC1(CC(O)(Cc2ccc(Cl)cc2Cl)c2cccnc2)OCCO1 (centres undefined)
172 to 173 °C | Cc1c(NC(=O)c2ccc(-c3ccc(F)cc3F)cc2F)ccc2cc(CN3CCCC3)cnc12
212 to 213 °C | O=C1CCC(=O)N1CC(=O)N1c2ccccc2N(Cc2ccccc2)C(=O)[C@H]2CCC[C@H]21 (relative stereo)
75 to 76 °C | Cc1cc(C=O)cc(C)c1N

melting point | Compound
223 to 225 °C | CCOC(=O)c1cn(C23CC(C2)C3)c2cc(Cl)c(F)cc2c1=O
120 to 122 °C | S=c1nc2c(Cl)cccn2c(=S)n1-c1ncccc1Cl
190 to 191 °C | CCOCc1nc2c(N)nc3cc(OCc4cscn4)ccc3c2n1CC(C)(C)O
171 to 174 °C | CC(C)(C)c1ccc(-c2cccc(-c3ccccc3)c2CC(=O)NC(=N)N)cc1
191 to 192 °C | CSc1nc(N)nc(N)c1-c1ccc(Cl)cc1Cl
142 to 144 °C | O=C(O)C=Cc1ccc(NC(=O)CCCCCNC(=O)OCc2ccccc2)cc1
148 to 153 °C | COc1ccccc1N1CCN(CCCCCn2c(=O)[nH]c3cscc3c2=O)CC1
130 to 137 °C | N#CCC(C#N)S(=O)(=O)c1ccc(Cl)cc1 (centres undefined)
145 to 146 °C | O=C(NCCO)c1csc(-c2cccc([N+](=O)[O-])c2)n1
179 to 180 °C | CSc1ccc2c(c1)NC(=O)C2
40 to 44 °C | COC(=O)[C@H](Cc1ccc([N+](=O)[O-])cc1)NC(=O)C1(CCCCS(C)(=O)=O)CCCC1
119 to 120 °C | COC(=O)c1nc(Br)c(F)c(N)c1Cl
162 to 164 °C | Nc1ncccc1-c1nc2ccc(-c3cccnc3)nc2n1-c1ccc(CC(=O)Nc2ccccc2)cc1
120 to 121 °C | NC(=O)c1c(O)cccc1OCCBr
71 °C | CCCCN(CCCC)S(=O)(=O)c1cc(C(=O)CCl)ccc1Cl
190 to 191 °C | Cc1cnc(C2=NC(C)(C(C)C)C(=O)N2)c(C(O)(c2cccs2)c2cccs2)c1 (centres undefined)
123 to 125 °C | CCNC(=O)n1nc(Oc2ncc(C(F)(F)F)cc2Cl)c(Br)c1C
122 to 124 °C | CCOC(=O)c1[nH]c(I)c(C)c1CC
69 to 70 °C | COc1cccc2c(Cc3nc(CCc4ccccc4)co3)coc12
37 to 38 °C | CCCCCCCCCCCC(CC(=O)C(CCCCCC)C(=O)OC)OC1CCCCO1 (centres undefined)
200 °C | Cc1nc(-c2cc(-n3c(=O)cc(C(F)(F)F)n(C)c3=O)ccc2Cl)sc1C
244 °C | O=C(NC(Cc1ccc(OCc2ccccc2)cc1)C(=O)O)c1cn2cc(-c3cccnc3)ccc2n1 (centres undefined)
130 °C | N#Cc1ncccc1C(=O)OCc1csc(-c2cccc(Cl)c2)n1
68 to 74 °C | CCN(CC)C(=O)n1cnc(S(=O)(=O)CC2CC2)n1

melting point | Compound
119 °C | CC(C)(C)OC(=O)Nc1cc(N2CC3OC(C)(C)OC3C2)c(-c2ccc(F)cc2)cc1[N+](=O)[O-] (centres undefined)
161 to 162 °C | CC1=NN=C(C=Cc2cccc(F)c2)c2cc3c(cc2C1)OCO3
73 to 76.5 °C | COC(=O)C(C)Oc1ccc(NC(=O)CCCCCOCc2ccccc2)cc1 (centres undefined)
97 to 98 °C | CS(=O)(=O)c1ccc(C(=O)Cl)c(Cl)c1-c1nccs1
290 °C | CCCn1c(=O)c2[nH]c(-c3ccc4c(c3)OCCO4)nc2n(Cc2ccccc2)c1=O
259 to 260 °C | CC(C)c1onc(-c2c(Cl)cccc2Cl)c1COc1ccc(NCc2ccc(C(=O)O)cc2)c(C(F)(F)F)n1
102 °C | Cc1nn(C(=O)NC(C)(C)CCc2ccccc2Cl)c(=O)n1N
126 to 128 °C | CCCCCCCC[C@H](C(=S)Nc1c(SC)ccc2ncccc12)c1ccccc1
138 to 139 °C | COc1c([N+](=O)[O-])cc(Br)c2c1C(=O)CC2
119 to 121 °C | N#Cc1ccc(CC[C@H]2CC[C@H](CO)CC2)cc1
262 to 264 °C | Cc1ccc(NC(=O)c2c(Cl)cccc2Cl)c2nccc(N3CCN(C)C3=O)c12
255 to 257 °C | Cc1cc(C(F)(F)F)nc2nc(N)ccc12
167 to 168 °C | COC(=O)c1ccc(CN2CCc3ccc(S(=O)(=O)Nc4cccc(Cl)c4)cc3C2)o1
169 to 171 °C | CC(=O)n1nc(-c2cc(C(C)(C)C)c(O)c(C(C)(C)C)c2)c2cccnc21
126 to 127 °C | CCOC(=O)c1c(O)c2ccccc2c2nc3ccccc3nc12
95 °C | CP(=O)(O)CCC(=O)O
65 to 66 °C | Fc1ncnc(Oc2ccccc2)c1F
140 to 142 °C | NC(=S)NN=C(CCCOC(=O)Nc1ccccc1)c1ccccc1
300 °C | COc1ccc(-c2[nH]nc3c2C(=O)c2c(NC(=O)Cc4ccccc4Cl)cccc2-3)cc1
> 280 °C | CCn1c(=O)c2[nH]c(/C=C/c3cc(C)c(OC)cc3C)nc2n(CC)c1=O
144 to 146 °C | CCCC(=O)c1cnc2c(OCCOCCO)cccc2c1Nc1ccccc1C
76 to 78 °C | Cc1ccc(C(=O)c2noc(CC#N)n2)cc1
95 °C | CN1CCC(OC2c3cccc(-c4ccc(F)cc4)c3CCn3cc(-c4ccccc4)nc32)CC1 (centres undefined)
234 to 236 °C | CN(C)CCOc1ccc(Cl)c(C(=O)O)c1Cl

melting point | Compound
128 to 131 °C | COc1ccnc(C(C)Sc2nc3cc(OC(F)F)c(OC)cc3[nH]2)c1 (centres undefined)
154 °C | CCc1cccc(C)c1CNc1cc(C(=O)N(C)C)cc2c1nc(COC)n2C
172 to 174 °C | COc1ccc(N(C(C)=O)S(=O)(=O)c2ccc(C)cc2)c([N+](=O)[O-])c1
272 to 274 °C | O=C(NCCN1C=CC(c2ccccc2)=CC1)c1ccccc1S(=O)(=O)O
161 °C | CC(=O)OC1CSC(Oc2cccnc2Br)C(OC(C)=O)C1OC(C)=O (centres undefined)
131 to 133 °C | CC(C)(C)OC(=O)CCNC(=O)c1ccc2c(Cl)cnc(Cl)c2c1
162 °C | CCC(C(=O)c1ccc(Cl)cc1)n1ncn(-c2ccc(N3CCN(c4nc5ccccc5s4)CC3)cc2)c1=O (centres undefined)
240 to 241 °C | O=c1[nH]c(-c2[nH]c3ccccc3c2Cl)no1
115 to 119 °C | CCCCCCCCN(C[C@H]1CCC[C@H](CN(CCCCCCCC)C(=O)Nc2ccc(N(C)C)cc2)C1)C(=O)Nc1ccc(N(C)C)cc1 (relative stereo)
70 to 73 °C | COC(=O)CCC1(CCC(=O)OC)CCC(=O)N1
93 to 94 °C | CC1CCCN1c1nccc(Oc2ccc(NC(=O)c3cc(F)cc(N4CCCCC4)c3)c3ccccc23)n1 (centres undefined)
224 to 226 °C | O=C1NC2(CCCc3sccc32)c2ccccc21 (centres undefined)
195 to 196 °C | CCOC(=O)CN(CCN(CCN1CC(=O)OC(=O)C1)CC(=O)O)CC(=O)O
130 to 135 °C | N=C(N)NCCc1nccs1
137 to 141 °C | Cc1c(-c2cccnc2)n(CCCCCC(=O)O)c2ccc(Cl)cc12
175 to 176 °C | COCCNc1ccc2ncnc(Nc3ccc(F)cc3F)c2c1
103 to 106 °C | COc1cccc(COc2ncc(F)c(NN)n2)c1
169 to 171 °C | CCC(=O)N[C@@H](C)C(=O)N1CCC[C@H]1C(=O)O
110 to 112 °C | CCOC(=O)Cc1ccc(OCCCN2CCC(C(O)(c3ccc(F)cc3)c3ccc(F)cc3)CC2)c(OC)c1
268 to 269 °C | Cn1ncnc1COc1nn2c(-c3ccc(F)cc3)nnc2cc1-c1ccsc1
154 to 156 °C | COc1cc(Nc2nccc(Nc3cccc(OC(F)(F)F)c3)n2)cc(OC)c1OC
100 to 102 °C | CCOC1=CCC(NC(C)=O)CC1 (centres undefined)
98.5 to 100 °C | Cc1[nH]cnc1CSCCN=C(NCCCc1c[nH]cn1)NC(=O)c1ccccc1
129 to 132 °C | COc1ccc(S(=O)(=O)N(CCN2CCC(C(=O)c3ccc(F)cc3)CC2)c2cccc(OC)c2)cc1

Compound | melting point
O=C(CC1CCN(Cc2ccccc2)CC1)Nc1noc(C2CN3CCC2CC3)n1 (centres undefined) | 133 to 134 °C
COC(=O)c1ccccc1C(=O)c1ccc(N2CCC(N3C(=O)OCc4ccc(Cl)cc43)CC2)c([N+](=O)[O-])c1 | 90 to 92 °C
NC1=NCC(COc2cccc(C(F)(F)F)c2)O1 (centres undefined) | 10 °C
